From PMC5218480 (PLoS ONE, 2017)

System: MV-4-11 cells
Assay: Gene expression microarray analysis (Affymetrix PrimeView) and GSEA
Format: cell-based, human
Set-up: RFU PODN (11730768_x_at) / Fold change /veh PODN (11730768_x_at) / RFU LINC00158 (11744669_a_at) / Fold change /veh LINC00158 (11744669_a_at) / RFU DUSP10 (11751237_a_at) / Fold change /veh DUSP10 (11751237_a_at) / RFU ID3 (11757404_x_at) / Fold change /veh ID3 (11757404_x_at) / RFU PLEKHG5 (11737974_s_at) / Fold change /veh PLEKHG5 (11737974_s_at) / RFU LRRC4B (11730491_at) / Fold change /veh LRRC4B (11730491_at) / RFU GIMAP4 (11747438_a_at) / Fold change /veh GIMAP4 (11747438_a_at) / RFU KRT8 (11758183_x_at) / Fold change /veh KRT8 (11758183_x_at) / RFU CNN1 (11734310_a_at) / Fold change /veh CNN1 (11734310_a_at) / RFU VPS37D (11726825_at) / Fold change /veh VPS37D (11726825_at) / RFU C10orf10 (11716522_x_at) / Fold change /veh C10orf10 (11716522_x_at) / RFU KIR2DL2 /// KIR2DL4 /// KIR2DL5A /// KIR2DL5B /// KIR2DS1 /// KIR2DS2 /// KIR2DS3 /// KIR2DS4 /// KIR3DL3 /// KIR3DL3 /// KIR3DS1 (11738374_at) / Fold change /veh KIR2DL2 /// KIR2DL4 /// KIR2DL5A /// KIR2DL5B /// KIR2DS1 /// KIR2DS2 /// KIR2DS3 /// KIR2DS4 /// KIR3DL3 /// KIR3DL3 /// KIR3DS1 (11738374_at) / RFU C1QL1 (11718748_at) / Fold change /veh C1QL1 (11718748_at) / RFU TMPRSS4 (11747572_a_at) / Fold change /veh TMPRSS4 (11747572_a_at) / RFU HAMP (11756126_x_at) / Fold change /veh HAMP (11756126_x_at) / RFU RNFT2 (11725882_a_at) / Fold change /veh RNFT2 (11725882_a_at) / RFU NR4A2 (11747474_a_at) / Fold change /veh NR4A2 (11747474_a_at) / RFU ABCC12 (11746883_a_at) / Fold change /veh ABCC12 (11746883_a_at) / RFU TMEM136 (11760407_x_at) / Fold change /veh TMEM136 (11760407_x_at) / RFU CLDN22 /// WWC2 (11732394_at) / Fold change /veh CLDN22 /// WWC2 (11732394_at) / RFU HLA-DPB1 (11760878_x_at) / Fold change /veh HLA-DPB1 (11760878_x_at) / RFU SPINT1 (11716480_a_at) / Fold change /veh SPINT1 (11716480_a_at) / RFU GAP43 (11754022_s_at) / Fold change /veh GAP43 (11754022_s_at) / RFU A4GNT (11735810_at) / Fold change /veh A4GNT (11735810_at) / RFU PRB3 (11715151_x_at) / Fold change /veh PRB3 (11715151_x_at) / RFU TUBB4B (11761932_at) / Fold change /veh TUBB4B (11761932_at) / RFU CAPN14 (11732068_a_at) / Fold change /veh CAPN14 (11732068_a_at) / RFU TMCC2 (11721928_a_at) / Fold change /veh TMCC2 (11721928_a_at) / RFU IRGQ (11745062_a_at) / Fold change /veh IRGQ (11745062_a_at) / RFU FAM174B (11720279_a_at) / Fold change /veh FAM174B (11720279_a_at) / RFU TMPRSS4 (11748680_a_at) / Fold change /veh TMPRSS4 (11748680_a_at) / RFU FAM212B (11763350_a_at) / Fold change /veh FAM212B (11763350_a_at) / RFU PLEKHG5 (11743358_a_at) / Fold change /veh PLEKHG5 (11743358_a_at) / RFU ZSCAN30 (11745921_a_at) / Fold change /veh ZSCAN30 (11745921_a_at) / RFU CMKLR1 (11741424_a_at) / Fold change /veh CMKLR1 (11741424_a_at) / RFU LOC101060620 /// MAPK8IP1 (11723275_at) / Fold change /veh LOC101060620 /// MAPK8IP1 (11723275_at) / RFU SPTSSB (11747773_x_at) / Fold change /veh SPTSSB (11747773_x_at) / RFU PRSS12 (11739890_at) / Fold change /veh PRSS12 (11739890_at) / RFU BIN1 (11741810_x_at) / Fold change /veh BIN1 (11741810_x_at) / RFU WNT11 (11732464_a_at) / Fold change /veh WNT11 (11732464_a_at) / RFU C10orf10 (11716521_a_at) / Fold change /veh C10orf10 (11716521_a_at) / RFU C5orf56 (11738089_at) / Fold change /veh C5orf56 (11738089_at) / RFU CYB561 (11721691_x_at) / Fold change /veh CYB561 (11721691_x_at) / RFU ANKRD19P (11752326_a_at) / Fold change /veh ANKRD19P (11752326_a_at) / RFU OR2T12 /// OR2T33 /// OR2T8 (11738714_s_at) / Fold change /veh OR2T12 /// OR2T33 /// OR2T8 (11738714_s_at) / RFU VCAN (11748164_a_at) / Fold change /veh VCAN (11748164_a_at) / RFU JSRP1 (11732532_at) / Fold change /veh JSRP1 (11732532_at) / RFU KRTAP10-11 (11738290_x_at) / Fold change /veh KRTAP10-11 (11738290_x_at) / RFU MYO3A (11730013_a_at) / Fold change /veh MYO3A (11730013_a_at) / RFU EBF3 (11725865_a_at) / Fold change /veh EBF3 (11725865_a_at) / RFU CAMK2N1 (11719241_x_at) / Fold change /veh CAMK2N1 (11719241_x_at) / RFU C5orf56 (11738088_a_at) / Fold change /veh C5orf56 (11738088_a_at) / RFU OLFML3 (11715873_a_at) / Fold change /veh OLFML3 (11715873_a_at) / RFU LOC100653217 /// NTM (11731650_a_at) / Fold change /veh LOC100653217 /// NTM (11731650_a_at) / RFU MAPK11 (11762145_a_at) / Fold change /veh MAPK11 (11762145_a_at) / RFU FIZ1 (11724087_x_at) / Fold change /veh FIZ1 (11724087_x_at) / RFU OASL (11726364_x_at) / Fold change /veh OASL (11726364_x_at) / RFU SOX15 (11748057_x_at) / Fold change /veh SOX15 (11748057_x_at) / RFU CD79A (11719716_a_at) / Fold change /veh CD79A (11719716_a_at) / RFU HIST1H1D (11736915_at) / Fold change /veh HIST1H1D (11736915_at) / RFU CASKIN2 (11723855_a_at) / Fold change /veh CASKIN2 (11723855_a_at) / RFU LOC730098 (11760151_x_at) / Fold change /veh LOC730098 (11760151_x_at) / RFU OR4N2 (11742367_at) / Fold change /veh OR4N2 (11742367_at) / RFU PRRT2 (11749266_a_at) / Fold change /veh PRRT2 (11749266_a_at) / RFU SNX32 (11753110_a_at) / Fold change /veh SNX32 (11753110_a_at) / RFU CDHR5 (11726645_a_at) / Fold change /veh CDHR5 (11726645_a_at) / RFU RCAN1 (11760418_a_at) / Fold change /veh RCAN1 (11760418_a_at) / RFU FAM167A (11723789_a_at) / Fold change /veh FAM167A (11723789_a_at) / RFU FAM26E (11764081_at) / Fold change /veh FAM26E (11764081_at) / RFU ISYNA1 (11749810_s_at) / Fold change /veh ISYNA1 (11749810_s_at) / RFU ACY1 (11761880_at) / Fold change /veh ACY1 (11761880_at) / RFU 11764098_at / Fold change /veh 11764098_at / RFU SAMD14 (11745864_x_at) / Fold change /veh SAMD14 (11745864_x_at) / RFU NPB (11741838_a_at) / Fold change /veh NPB (11741838_a_at) / RFU TMPRSS6 (11731388_a_at) / Fold change /veh TMPRSS6 (11731388_a_at) / RFU KRTAP10-2 (11738614_at) / Fold change /veh KRTAP10-2 (11738614_at) / RFU ARHGAP8 /// PRR5-ARHGAP8 (11727945_x_at) / Fold change /veh ARHGAP8 /// PRR5-ARHGAP8 (11727945_x_at) / RFU KRTAP5-7 /// NADSYN1 (11734609_at) / Fold change /veh KRTAP5-7 /// NADSYN1 (11734609_at) / RFU RASL12 (11751679_a_at) / Fold change /veh RASL12 (11751679_a_at) / RFU CDKN2B (11736163_a_at) / Fold change /veh CDKN2B (11736163_a_at) / RFU PRF1 (11729649_at) / Fold change /veh PRF1 (11729649_at) / RFU, ZNF638 /// ZNF638-IT1 / Fold change vs veh, ZNF638 /// ZNF638-IT1 / RFU, PANK3 / Fold change vs veh, PANK3 / RFU, SH3YL1 / Fold change vs veh, SH3YL1 / RFU, ZEB2 / Fold change vs veh, ZEB2 / RFU, NRIP1 / Fold change vs veh, NRIP1 / RFU, PTTG1IP / Fold change vs veh, PTTG1IP / RFU, CAPN2 / Fold change vs veh, CAPN2 / RFU, MED14 / Fold change vs veh, MED14 / RFU, SNORA58 / Fold change vs veh, SNORA58 / RFU, C1orf63 / Fold change vs veh, C1orf63 / RFU, LRRFIP1 / Fold change vs veh, LRRFIP1 / RFU, NDUFAF7 / Fold change vs veh, NDUFAF7 / RFU, SLC12A2 / Fold change vs veh, SLC12A2 / RFU, IBTK / Fold change vs veh, IBTK / RFU, ESF1 / Fold change vs veh, ESF1 / Fold change vs veh, TMEM50B / RFU, TAOK1 / Fold change vs veh, TAOK1 / RFU, ACBD3 / Fold change vs veh, ACBD3 / RFU, TMA16 / Fold change vs veh, TMA16 / RFU, RWDD3 / Fold change vs veh, RWDD3 / RFU, BCAT1 / Fold change vs veh, BCAT1 / RFU, EDEM3 / Fold change vs veh, EDEM3 / RFU, TMEM33 / Fold change vs veh, TMEM33 / RFU, WDR75 / Fold change vs veh, WDR75 / RFU, AHCTF1 / Fold change vs veh, AHCTF1 / RFU, TFRC / Fold change vs veh, TFRC / RFU, ZDHHC17 / Fold change vs veh, ZDHHC17 / RFU, NOM1 / Fold change vs veh, NOM1 / RFU, ARL8B / Fold change vs veh, ARL8B / RFU, ZBTB11 / Fold change vs veh, ZBTB11 / RFU, TAMM41 / Fold change vs veh, TAMM41 / RFU, KIAA1704 /// LOC100996395 / Fold change vs veh, KIAA1704 /// LOC100996395 / RFU, ING1 / Fold change vs veh, ING1 / RFU, TRMT61B / Fold change vs veh, TRMT61B / RFU, FUBP3 / Fold change vs veh, FUBP3 / RFU, TP53 / Fold change vs veh, TP53 / RFU, TNKS2 / Fold change vs veh, TNKS2 / RFU, ZFP14 / Fold change vs veh, ZFP14 / RFU, ACTR2 / Fold change vs veh, ACTR2 / RFU, PPP3R1 / Fold change vs veh, PPP3R1 / RFU, PIK3R1 / Fold change vs veh, PIK3R1 / RFU, HNRNPA1 / Fold change vs veh, HNRNPA1 / RFU, RNF170 / Fold change vs veh, RNF170 / RFU, ZNF28 / Fold change vs veh, ZNF28 / RFU, RNGTT / Fold change vs veh, RNGTT / RFU, OGT / Fold change vs veh, OGT / RFU, BRD1 / Fold change vs veh, BRD1 / RFU, MARS / Fold change vs veh, MARS / RFU, ZNF655 / Fold change vs veh, ZNF655 / RFU, FAHD1 / Fold change vs veh, FAHD1 / RFU, BDP1 / Fold change vs veh, BDP1 / RFU, LRRCC1 / Fold change vs veh, LRRCC1 / RFU, ARID1A / Fold change vs veh, ARID1A / RFU, ZNF146 / Fold change vs veh, ZNF146 / RFU, ZNF330 / Fold change vs veh, ZNF330 / RFU, GPN3 / Fold change vs veh, GPN3 / RFU, C9orf123 / Fold change vs veh, C9orf123 / RFU, N4BP2L2 / Fold change vs veh, N4BP2L2 / RFU, ARFIP1 / Fold change vs veh, ARFIP1 / RFU, FAM179B / Fold change vs veh, FAM179B / RFU, BCL10 / Fold change vs veh, BCL10 / RFU, UHRF1BP1L / Fold change vs veh, UHRF1BP1L / RFU, BET1 / Fold change vs veh, BET1 / RFU, CNOT2 / Fold change vs veh, CNOT2 / RFU, ZNF268 / Fold change vs veh, ZNF268 / Fold change vs veh, ZNF507 / RFU, DGCR2 / Fold change vs veh, DGCR2 / RFU, WDSUB1 / Fold change vs veh, WDSUB1 / Fold change vs veh, HSP90B1 /// MIR3652 / RFU, ADSS / Fold change vs veh, ADSS / RFU, GK / Fold change vs veh, GK / RFU, ZNF148 / Fold change vs veh, ZNF148 / RFU, TAF9 / Fold change vs veh, TAF9 / RFU, SLC1A5 / Fold change vs veh, SLC1A5 / RFU, SLMO2 / Fold change vs veh, SLMO2 / RFU, ABCC4 / Fold change vs veh, ABCC4 / RFU, LOC101060439 /// RAP1B / Fold change vs veh, LOC101060439 /// RAP1B / RFU, RFX7 / Fold change vs veh, RFX7 / RFU, GTPBP10 / Fold change vs veh, GTPBP10 / RFU, CNEP1R1 / Fold change vs veh, CNEP1R1 / RFU, BIVM-ERCC5 /// ERCC5 / Fold change vs veh, BIVM-ERCC5 /// ERCC5 / RFU, ILF3 / Fold change vs veh, ILF3 / RFU 11762660_at / Fold change /veh 11762660_at / RFU VCAN (11757783_s_at) / Fold change /veh VCAN (11757783_s_at) / RFU DDX43 (11728927_at) / Fold change /veh DDX43 (11728927_at) / RFU KRT8 (11758188_x_at) / Fold change /veh KRT8 (11758188_x_at) / RFU NKD1 (11759106_at) / Fold change /veh NKD1 (11759106_at) / RFU SRD5A1 (11742802_a_at) / Fold change /veh SRD5A1 (11742802_a_at) / RFU TPSAB1 /// TPSB2 (11721975_s_at) / Fold change /veh TPSAB1 /// TPSB2 (11721975_s_at) / RFU GSTM3 (11746129_a_at) / Fold change /veh GSTM3 (11746129_a_at) / RFU IL23R (11737362_x_at) / Fold change /veh IL23R (11737362_x_at) / RFU TMEM51 (11727254_a_at) / Fold change /veh TMEM51 (11727254_a_at) / RFU PIWIL2 (11732686_x_at) / Fold change /veh PIWIL2 (11732686_x_at) / RFU ORM1 (11744905_x_at) / Fold change /veh ORM1 (11744905_x_at) / RFU CCDC152 (11743942_at) / Fold change /veh CCDC152 (11743942_at) / RFU ECM1 (11717891_a_at) / Fold change /veh ECM1 (11717891_a_at) / RFU IL23R (11748794_a_at) / Fold change /veh IL23R (11748794_a_at) / RFU TNFAIP8L3 (11732012_x_at) / Fold change /veh TNFAIP8L3 (11732012_x_at) / RFU MBOAT4 (11741988_at) / Fold change /veh MBOAT4 (11741988_at) / RFU 11764193_at / Fold change /veh 11764193_at / RFU TMEM53 (11763286_at) / Fold change /veh TMEM53 (11763286_at) / RFU MAGEB2 (11727129_at) / Fold change /veh MAGEB2 (11727129_at) / RFU TMEM200A (11744735_a_at) / Fold change /veh TMEM200A (11744735_a_at) / RFU CCDC152 (11751479_a_at) / Fold change /veh CCDC152 (11751479_a_at) / RFU FAM211A (11726209_a_at) / Fold change /veh FAM211A (11726209_a_at) / RFU RGS16 (11746705_a_at) / Fold change /veh RGS16 (11746705_a_at) / RFU VCAN (11755009_s_at) / Fold change /veh VCAN (11755009_s_at) / RFU RHOB (11743442_s_at) / Fold change /veh RHOB (11743442_s_at) / RFU RGS16 (11720943_a_at) / Fold change /veh RGS16 (11720943_a_at) / RFU RGS16 (11720944_at) / Fold change /veh RGS16 (11720944_at) / RFU, VPS4B / Fold change vs veh, VPS4B / RFU, CREB1 / Fold change vs veh, CREB1 / RFU, DNAJC13 / Fold change vs veh, DNAJC13 / RFU, GNAQ / Fold change vs veh, GNAQ / RFU, CDK5R1 / Fold change vs veh, CDK5R1 / RFU, ZRANB3 / Fold change vs veh, ZRANB3 / RFU, CUL4A / Fold change vs veh, CUL4A / RFU, CCNY / Fold change vs veh, CCNY / RFU, UFL1 / Fold change vs veh, UFL1 / RFU, COG3 / Fold change vs veh, COG3 / RFU, DIAPH2 / Fold change vs veh, DIAPH2 / RFU, SKA2 / Fold change vs veh, SKA2 / RFU, AFF3 / Fold change vs veh, AFF3 / RFU, LMF1 / Fold change vs veh, LMF1 / RFU, IPO11 / Fold change vs veh, IPO11 / RFU, DFFB / Fold change vs veh, DFFB / RFU, FOXP1 / Fold change vs veh, FOXP1 / RFU, CARD8 / Fold change vs veh, CARD8 / RFU, STRN3 / Fold change vs veh, STRN3 / RFU, ADK / Fold change vs veh, ADK / RFU, RASSF2 / Fold change vs veh, RASSF2 / RFU, WIPF1 / Fold change vs veh, WIPF1 / RFU, LARP1B / Fold change vs veh, LARP1B / RFU, RASA1 / Fold change vs veh, RASA1 / RFU, RB1 / Fold change vs veh, RB1 / RFU, PPFIA1 / Fold change vs veh, PPFIA1 / RFU, MAT2A / Fold change vs veh, MAT2A / RFU, CCT5 / Fold change vs veh, CCT5 / RFU, WDR92 / Fold change vs veh, WDR92 / RFU, CUX1 / Fold change vs veh, CUX1 / RFU, TTC7A / Fold change vs veh, TTC7A / RFU, TMEM135 / Fold change vs veh, TMEM135 / RFU, DEPTOR / Fold change vs veh, DEPTOR / RFU, CPM / Fold change vs veh, CPM / RFU, DNAJB6 / Fold change vs veh, DNAJB6 / RFU, CACNA2D3 / Fold change vs veh, CACNA2D3 / RFU, DTX4 / Fold change vs veh, DTX4 / RFU, TFCP2 / Fold change vs veh, TFCP2 / RFU, GMCL1 /// GMCL1P1 / Fold change vs veh, GMCL1 /// GMCL1P1 / RFU, AEBP2 / Fold change vs veh, AEBP2 / RFU, SNHG1 /// SNORD22 /// SNORD25 /// SNORD26 /// SNORD27 /// SNORD28 /// SNORD29 /// SNORD31 / Fold change vs veh, SNHG1 /// SNORD22 /// SNORD25 /// SNORD26 /// SNORD27 /// SNORD28 /// SNORD29 /// SNORD31 / Fold change (Aza/veh), C12orf56 (ProbeSet 11735607_a_at) / Fold change (ACY-1035/veh), C12orf56 (ProbeSet 11735607_a_at) / Fold change (Aza/veh), FGFR1OP (ProbeSet 11751329_s_at) / Fold change (ACY-1035/veh), FGFR1OP (ProbeSet 11751329_s_at) / Fold change (Aza/veh), VPS36 (ProbeSet 11739960_a_at) / Fold change (ACY-1035/veh), VPS36 (ProbeSet 11739960_a_at) / RFU SYPL1 (11715823_x_at) / Fold change /veh SYPL1 (11715823_x_at) / RFU IGFBP7 (11715501_s_at) / Fold change /veh IGFBP7 (11715501_s_at) / RFU REEP3 (11722064_at) / Fold change /veh REEP3 (11722064_at) / RFU IGLL1 (11728026_x_at) / Fold change /veh IGLL1 (11728026_x_at): dose or concentration left out as unconfirmed
Conditions: MV-4-11 cells, 48 hours

## Nc1ncn([C@@H]2O[C@H](CO)[C@@H](O)[C@H]2O)c(=O)n1 [azacitidine]
  Fold change /veh SAMD14 (11745864_x_at): 0.91
